Data reported in ChEMBL document CHEMBL1201862, “PubChem BioAssay data set” (2004).
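Tested at 5 concentrations; 48 h exposure; 96-well plates; endpoints linearly interpolated, else capped at highest concentration. Here, GI50 denotes the concentration required for 50% inhibition of growth.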 Active and inactive are the calls of the source. Rule as the data show it: active = GI50 up to about 1.1 µM and inactive = higher.

How the values were obtained:
Assay in all cases: NCI tumour cell line growth inhibition, 48 h
MDA-MB-231 = system: MDA-MB-231
NCI-H460 = system: NCI-H460
EKVX = system: EKVX
TK-10 = system: TK-10
SK-MEL-5 = system: SK-MEL-5
HCT-116 = system: HCT-116
Hs-578T = system: Hs-578T
SNB-75 = system: SNB-75
DU-145 = system: DU-145
SF-295 = system: SF-295
HCC 2998 = system: HCC 2998
786-0 = system: 786-0
SK-OV-3 = system: SK-OV-3
U-251 = system: U-251
SK-MEL-2 = system: SK-MEL-2
IGROV-1 = system: IGROV-1
HOP-92 = system: HOP-92
COLO 205 = system: COLO 205
MDA-MB-435 = system: MDA-MB-435
RPMI-8226 = system: RPMI-8226

Measured: GI50

[N-]=[N+]=NC1=NNC2(C(=O)N1)c1ccccc1-c1ccccc12
inactive: MDA-MB-231 > 100 µM | NCI-H460 > 100 µM | EKVX > 100 µM | TK-10 > 100 µM | SK-MEL-5 > 100 µM | HCT-116 14.2 µM | Hs-578T 27.6 µM | SNB-75 > 100 µM | DU-145 > 100 µM | SF-295 > 100 µM | HCC 2998 > 100 µM | 786-0 > 100 µM | SK-OV-3 > 100 µM | U-251 > 100 µM | SK-MEL-2 > 100 µM | IGROV-1 > 100 µM | HOP-92 > 100 µM | COLO 205 > 100 µM | MDA-MB-435 17.4 µM

CN1C(=O)C(=CNc2ccccc2[N+](=O)[O-])C(=O)N(C)C1=O
inactive: MDA-MB-231 > 100 µM | NCI-H460 > 100 µM | EKVX > 100 µM | TK-10 > 100 µM | SK-MEL-5 > 100 µM | HCT-116 > 100 µM | Hs-578T > 100 µM | SNB-75 > 100 µM | RPMI-8226 > 100 µM | SF-295 > 100 µM | HCC 2998 > 100 µM | 786-0 > 100 µM | SK-OV-3 > 100 µM | U-251 > 100 µM | SK-MEL-2 > 100 µM | IGROV-1 > 100 µM | HOP-92 > 100 µM | COLO 205 > 100 µM | MDA-MB-435 > 100 µM

O=c1cc(N2CCOCC2)[nH]c(=O)n1-c1cccc(C(F)(F)F)c1
inactive: MDA-MB-231 20.7 µM | NCI-H460 > 100 µM | EKVX > 100 µM | TK-10 > 100 µM | SK-MEL-5 > 100 µM | HCT-116 > 100 µM | Hs-578T > 100 µM | SNB-75 > 100 µM | DU-145 > 100 µM | SF-295 > 100 µM | HCC 2998 > 100 µM | 786-0 > 100 µM | SK-OV-3 > 100 µM | U-251 64.7 µM | SK-MEL-2 43.3 µM | IGROV-1 > 100 µM | HOP-92 > 100 µM | COLO 205 > 100 µM | MDA-MB-435 > 100 µM

Cn1c(=O)n2n(c1=O)C1C(=CC2)C2C=CC1n1c(=O)n(C)c(=O)n12 (stereo not drawn)
inactive: MDA-MB-231 > 100 µM | NCI-H460 > 100 µM | EKVX > 100 µM | TK-10 > 100 µM | SK-MEL-5 > 100 µM | HCT-116 > 100 µM | Hs-578T > 100 µM | SNB-75 > 100 µM | DU-145 > 100 µM | RPMI-8226 > 100 µM | SF-295 > 100 µM | 786-0 > 100 µM | SK-OV-3 > 100 µM | U-251 > 100 µM | SK-MEL-2 > 100 µM | IGROV-1 > 100 µM | HOP-92 > 100 µM | COLO 205 > 100 µM | MDA-MB-435 > 100 µM

CC1OC23CCCCC2C(C#N)(C#N)C1(C#N)C(=N)O3 (stereo not drawn)
inactive: MDA-MB-231 15.7 µM | NCI-H460 17.9 µM | EKVX 28.6 µM | TK-10 22.5 µM | SK-MEL-5 16.3 µM | HCT-116 16.6 µM | Hs-578T 21.8 µM | SNB-75 38.3 µM | DU-145 24.3 µM | SF-295 70 µM | HCC 2998 25.5 µM | 786-0 12.8 µM | SK-OV-3 > 100 µM | U-251 22.8 µM | SK-MEL-2 19.9 µM | IGROV-1 19.6 µM | HOP-92 13.8 µM | COLO 205 14.7 µM | MDA-MB-435 20.8 µM

COc1cc(NS(C)(=O)=O)ccc1Nc1ccnc2ccc3[nH]ccc3c12
inactive: MDA-MB-231 11.6 µM | NCI-H460 18.2 µM | EKVX 19.4 µM | TK-10 16.3 µM | SK-MEL-5 15.3 µM | HCT-116 12.2 µM | Hs-578T 21.3 µM | DU-145 14.4 µM | RPMI-8226 15 µM | SF-295 18.2 µM | 786-0 14.6 µM | U-251 14 µM | SK-MEL-2 16.7 µM | IGROV-1 16.1 µM | HOP-92 11.9 µM | COLO 205 17 µM | MDA-MB-435 15.6 µM

CN(C)CCCNC(=O)CCNC(=O)c1cc(NC(=O)c2cc(NC(=O)c3cc(NC(=O)CCCNC(=O)c4cc(NC(=O)c5cc(NC(=O)c6nccn6C)cn5C)cn4C)cn3C)cn2C)cn1C
inactive: MDA-MB-231 > 100 µM | NCI-H460 > 100 µM | EKVX > 100 µM | TK-10 > 100 µM | SK-MEL-5 > 100 µM | HCT-116 > 100 µM | Hs-578T > 100 µM | SNB-75 > 100 µM | RPMI-8226 > 100 µM | SF-295 > 100 µM | HCC 2998 > 100 µM | 786-0 > 100 µM | SK-OV-3 > 100 µM | U-251 > 100 µM | SK-MEL-2 > 100 µM | IGROV-1 > 100 µM | HOP-92 > 100 µM | COLO 205 > 100 µM | MDA-MB-435 > 100 µM

CC#C[C@]1(O)CCC2[C@@H]3CCC4=CC(=O)CCC4=C3[C@@H](c3ccc(N(C)C)cc3)C[C@@]21C (stereo partly drawn)
inactive: MDA-MB-231 8.79 µM | NCI-H460 9.86 µM | EKVX 13.2 µM | TK-10 11.9 µM | SK-MEL-5 10.9 µM | HCT-116 15 µM | Hs-578T 13 µM | DU-145 22.1 µM | RPMI-8226 2.02 µM | SF-295 10.7 µM | 786-0 15.2 µM | SK-OV-3 18.3 µM | U-251 12.5 µM | HOP-92 1.43 µM | COLO 205 11.5 µM | MDA-MB-435 12.2 µM

Brc1ccc(C2CC3(c4ccccc4)ON=C(c4ccccc4)N3c3ccccc3S2)cc1 (stereo not drawn)
inactive: MDA-MB-231 > 100 µM | NCI-H460 > 100 µM | EKVX > 100 µM | TK-10 > 100 µM | SK-MEL-5 > 100 µM | HCT-116 5.87 µM | Hs-578T > 100 µM | SNB-75 > 100 µM | DU-145 > 100 µM | SF-295 > 100 µM | HCC 2998 > 100 µM | 786-0 > 100 µM | SK-OV-3 > 100 µM | U-251 > 100 µM | SK-MEL-2 > 100 µM | IGROV-1 > 100 µM | HOP-92 > 100 µM | COLO 205 > 100 µM | MDA-MB-435 > 100 µM

CC(C)(C)c1cc(C(O)(C(=O)O)C(=O)O)cc(C(C)(C)C)c1O
inactive: MDA-MB-231 > 100 µM | EKVX > 100 µM | TK-10 > 100 µM | SK-MEL-5 > 100 µM | HCT-116 > 100 µM | Hs-578T > 100 µM | SNB-75 > 100 µM | DU-145 > 100 µM | RPMI-8226 > 100 µM | SF-295 > 100 µM | 786-0 > 100 µM | SK-OV-3 > 100 µM | U-251 > 100 µM | SK-MEL-2 > 100 µM | IGROV-1 > 100 µM | HOP-92 > 100 µM | COLO 205 > 100 µM | MDA-MB-435 > 100 µM

O=C(O)CNC(=O)c1ccc([As](=O)(O)O)cc1
inactive: MDA-MB-231 > 100 µM | NCI-H460 > 100 µM | EKVX > 100 µM | TK-10 > 100 µM | SK-MEL-5 > 100 µM | HCT-116 > 100 µM | Hs-578T > 100 µM | SNB-75 > 100 µM | DU-145 > 100 µM | RPMI-8226 > 100 µM | SF-295 > 100 µM | 786-0 > 100 µM | SK-OV-3 > 100 µM | U-251 > 100 µM | SK-MEL-2 > 100 µM | IGROV-1 > 100 µM | HOP-92 > 100 µM | COLO 205 > 100 µM | MDA-MB-435 > 100 µM
